The results in this text go back to patent publication US20250025488A1, “NUCLEIC ACIDS FOR INHIBITING EXPRESSION OF TMPRSS6 AND IRON CHELATORS” (SILENCE THERAPEUTICS GMBH, priority 2018, published 2025).

The assay relates to HFE−/− mice. As to the kind of experiment: Liver iron concentrations, TMPRSS6 siRNA with or without Deferiprone, HFE−/− mice. Type of assay: in vivo, mouse. The following applies: 3 mg/kg siRNA conjugate s.c. Day 1 or Day 1 and 22, Deferiprone 0.5 mg/ml in drinking water, Day 43. The protocol: Three months old C57BL6/J congenic female HFE knock-out mice (−/−) and three months old female C57BL6/J wild type mice (+/+) were used in this study (Herrmann et al., Mol. Med, 2004. 82 (1): p1-3). HFE−/− mice (n=8) were treated on Day 1 (1×) or on Day 1 and on Day 22 (2×) subcutaneously with either PBS (PBS) or 3 mg/kg TMPRSS6 siRNA conjugate (TMP) or 3 mg/kg non-targeting siRNA conjugate (Luc). In addition, cohort 7 to 10 received Deferiprone supplied in drinking water at a concentration of 0.5 mg/ml. Cohorts 1 and 2 were terminated on Day 1 (Predose) all other cohorts on Day 43 (6 weeks after start of the treatment) to collect serum and tissue samples for analyses. Treatment with TMPRSS6 siRNAs enhances the reduction of tissue iron levels by iron chelator. 3 months old HFE−/− (rodent model for hereditary hemochromatosis and iron overload) or wild type mice were used for this study and treated as described in Example 46. Liver tissue samples were collected to assess liver iron concentrations before start of the treatment (predose) and at the end of the study at Day 43 (6 weeks after start of treatments). Liver tissue samples were dried and iron concentrations from dry weights were determined by acid extraction method. At the start of the study liver iron levels were already elevated in HFE−/− compared to wild type control mice (Predose). […]

On to `Cc1c(O)c(=O)ccn1C` [Deferiprone], for which the Liver iron content entry is reported as “little to no effect on the liver iron content”.
